Source: patent US20150202196A1, “Methods of Using C-Met Modulators” (priority 2010, published 2015)

Assays:
[1] = test system: primary human pancreatic cancer; assay: Orthotopic implants of primary human pancreatic cancer in the pancreatic tail of NOD/SCID mice: bioluminescent tumor growth and cancer stem cells; assay type: in vivo; details: for effect on cancer stem cell population (in words): CD44+CD24+ESA+; for effect on cancer stem cell population (in words) / % of CD44+CD24+ESA+ cancer stem cells in tumor: flow cytometry; for % of CD44+CD24+ESA+ cancer stem cells in tumor: table title says subcutaneous xenograft tumor, text cites it for orthotopic implants; for tumor growth during the 4 week treatment: orthotopic tumors, bioluminescent imaging, versus controls
Protocol: Sorted cells or bulk pancreatic tumor cells were washed with serum free HBSS and suspended in serum free-RPMI1640/Matrigel mixture (1:1 volume), followed by injection into the subcutaneous tissue of the right and left mid-abdominal area using a 27-gauge needle. In separate experiments, mice were anesthetized with an i.p. injection of 100 mg/kg ketamine and 5 mg/kg xylazine, and a small median laparotomy was performed. Five thousand sorted cells or 1-5×10^5 bulk tumor cells resuspended in PBS/Matrigel mixture (1:1) in a volume of 100 µl were injected into the tail of the pancreas using a 30-gauge needle. […] Animals then underwent autopsy, and tumor growth was accessed after 4 to 8 weeks.
To validate the findings with bioluminescent imaging, mice were euthanized with carbon dioxide inhalation, and autopsies were performed to assess the extent of primary tumor growth and metastasis.
The same three pancreatic cancers used for the subcutaneous tumor implantation experiments were infected with a lentivirus expressing luciferase to allow imaging in real time, and cells were injected into the pancreatic tail.
Tumor size and volume were measured weekly using Xenogen IVIS 200 imaging system throughout the experiment period.

[2] = test system: human pancreatic adenocarcinomas; assay type: in vivo; details: for % of CD44+c-Met+ cancer stem cells in tumor: flow cytometry after 4 weeks treatment; for tumor growth during the 4 week period of treatment: subcutaneous tumor volume, weekly, FIG. 8B; for effect on cancer stem cell population (in words): CD44+c-Met+, flow cytometry; for tumor growth following cessation of treatment: versus untreated tumors
Protocol: Samples of human pancreatic adenocarcinomas were obtained. Within 60 minutes following surgical resection, tumors were suspended in sterile RPMI medium 1640 (available from Sigma-Aldrich®), mechanically dissociated using scissors, then minced with a sterile scalpel blade over ice to yield 2×2 mm pieces. The tumor pieces were washed with serum-free PBS before implantation. Eight-week-old male NOD/SCID mice were anesthetized using an i.p. injection of 100 mg/kg ketamine and 5 mg/kg xylazine. NOD/SCID mice are publically available from Charles River Laboratories International in Wilmington, Mass. A 5-mm incision was then made in the skin overlying the mid-abdomen, and three pieces of tumor were implanted subcutaneously. The skin incision was closed with absorbable suture. The mice were monitored weekly for tumor growth for 16 to 20 weeks. After establishment of xenografts, studies were performed on passage 2 tumors.
Xenograft tumors or primary human tumors were cut up into small pieces with scissors, and then minced completely using sterile scalpel blades. To obtain single cell suspensions, the resultant minced tumor pieces were mixed with ultra-pure collagenase IV (Worthington Biochemical, Lakewood, N.J.) in medium 199 (200 units of collagenase per ml) and allowed to incubate at 37° C. for 1 to 1.5 hours for enzymatic dissociation. The specimens were further mechanically dissociated every 10 minutes by pipetting with a 10-ml pipette. At the end of the incubation, cells were filtered through a 40-μm nylon mesh, washed with HBSS/20% FBS, and then washed twice with HBSS.
Sorted cells or bulk pancreatic tumor cells were washed with serum free HBSS and suspended in serum free-RPMI1640/Matrigel mixture (1:1 volume), followed by injection into the subcutaneous tissue of the right and left mid-abdominal area using a 27-gauge needle. In separate experiments, mice were anesthetized with an i.p. injection of 100 mg/kg ketamine and 5 mg/kg xylazine, and a small median laparotomy was performed. Five thousand sorted cells or 1-5×10^5 bulk tumor cells resuspended in PBS/Matrigel mixture (1:1) in a volume of 100 µl were injected into the tail of the pancreas using a 30-gauge needle. PBS stands for phosphate buffered saline, which can be obtained from Thermo Fisher Scientific Inc. Six mice were inoculated per test group. Animals then underwent autopsy, and tumor growth was accessed after 4 to 8 weeks. Tissues were fixed in formaldehyde and were examined histologically or dissociated to generate single cell suspensions for further study.
[…]. CD44 and c-Met are both markers on pancreatic cancer stem cells.
. Subcutaneous tumor volume was assessed weekly. […] Half of the mice in each group were euthanized 4 weeks after initiation of treatment, and the tumors were dissociated and examined using flow cytometry to determine the percentage of c-Met+/CD44+ cancer stem cells within the tumors. The remaining mice were kept for an additional 8 weeks following cessation of treatment, and tumor volume was measured weekly. […]. […]. […]
Tumor size was measured weekly. Three mice of each group were euthanized after 4 weeks treatment for analysis of cancer stem cells, and the other mice were followed to monitor tumor growth for an additional 8 weeks. […] In FIG. 8B, the average tumor size±SEM from three separate tumors is presented. FIG. 8C depicts a graph of CSC percentage in different treatment groups. The percentage of the c-Met+/CD44+ tumorigenic cancer cell population in the total cancer cell population is indicated for each treatment.

[3] = Compound 1 30 mg/kg/day, GEM 100 mg/kg/twice weekly

| Compound | effect on cancer stem cell population (in words) [1] | % of CD44+CD24+ESA+ cancer stem cells in tumor [1] [%] | tumor growth during the 4 week treatment [1] | % of CD44+c-Met+ cancer stem cells in tumor [2, 3] [%] | tumor growth during the 4 week period of treatment [2] | increase of the c-Met+CD44+ population ([2]; subcutaneous tumors, 4 weeks treatment, GEM 100 mg/kg/twice weekly) [%] | effect on cancer stem cell population (in words) ([2]; subcutaneous tumors) | tumor growth following cessation of treatment ([2]; subcutaneous tumors) | decrease in CD44+c-Met+ cancer stem cell population ([2]; subcutaneous tumors, 4 weeks treatment, Compound 1 30 mg/kg/day, GEM 100 mg/kg/twice weekly) [%] |
| --- | --- | --- | --- | --- | --- | --- | --- | --- | --- |
| Nc1ccn([C@@H]2O[C@H](CO)[C@@H](O)C2(F)F)c(=O)n1 [GEM, gemcitabine] | increases in the total number of pancreatic cancer stem cells | 4.3 | prevented tumor growth | 4.34 | significantly inhibited tumor growth | 48±20 | increases in the total number of pancreatic cancer stem cells | grew more slowly than the untreated tumors |  |
| COc1cc2nccc(Oc3ccc(NC(=O)C4(C(=O)Nc5ccc(F)cc5)CC4)cc3)c2cc1OC [Compound 1, N-(4-{[6,7-bis(methyloxy)quinolin-4-yl]oxy}phenyl)-N′-(4-fluorophenyl)cyclopropane-1,1-dicarboxamide] | significantly depleted | 0.61 | prevented tumor growth | 0.55 | significantly inhibited tumor growth |  | significantly depleted | grew more slowly than the untreated tumors | 83±3 |
